Read-outs that look alike come from different tables or passages of the source.
Assays:
Type in all cases: in vivo
[1] = test system: Pyricularia oryzae (rice blast); experiment: whole plant or invertebrate; conditions: for pest or weed control at 400 ppm: Pyricularia oryzae, foliar, read-out: RICE BLAST, Test 1, foliar spray on rice, disease control rating at 400 ppm / 100 ppm
[2] = test system: Pseudoperonospora cubensis (downy mildew); experiment: Test 1 greenhouse foliar spray screen, downy mildew on squash; conditions: for pest or weed control at 400 ppm: Pseudoperonospora cubensis, foliar, Test 1, foliar spray on squash, disease control rating at 400 ppm / 100 ppm, read-out: DOWN MDEW; for activity against downy mildew: summary statement in the description
[3] = test system: Twospotted spider mites (Tetranychus urticae Koch); experiment: Mite/insect screen, SM; conditions: for mortality at 200 ppm / mortality at 400 ppm: Tetranychus urticae, foliar, read-out: SM RESULTS %; for activity as miticides: summary statement in the description
Summary of the method: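 Activity is expressed as percent mortality at the indicated spray concentrations. Plants are sprayed to runoff on upper and lower leaf surfaces with aqueous dilutions of an acetone/alcohol emulsifiable formulation, then dried for one hour.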

[4] = test system: Cercospora beticola (leaf spot); experiment: Test 1 greenhouse foliar spray screen, leaf spot on sugar beet; conditions: Cercospora beticola; Test 1, foliar spray on sugar beet; disease control rating at 400 ppm / 100 ppm
corn rootworm = experiment: Mite/insect screen, CRW; conditions: read-out: CRW RESULTS %
Summary of the method: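 Compounds were dissolved in 50:50 acetone/alcohol containing sulfonate/nonionic emulsifier blends (23 g/L plus 13 g/L), then diluted with water to the test concentrations. Percent mortality was scored after standard exposure periods.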

[5] = test system: southern armyworm (Spodopetra eridania Cramer); experiment: Mite/insect screen, SAW; conditions: Spodoptera eridania, foliar, read-out: SAW RESULTS %
Summary of the method: (§1)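 Compounds dissolved in 50:50 acetone/alcohol containing sulfonate/nonionic emulsifier blends, then diluted with water to the indicated concentrations. Leaves sprayed on both surfaces to runoff at 10 psi and dried one hour. Percent mortality scored after standard exposure periods.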

[6] = test system: Venturia inaequalis (apple scab); experiment: Test 1 greenhouse foliar spray screen, apple scab on apple seedling; conditions: Venturia inaequalis; Test 1, foliar spray on apple seedling; disease control rating at 400 ppm / 100 ppm; read-out: APPL SCAB
[7] = test system: Septoria tritici (leaf blotch); experiment: Test 1 greenhouse foliar spray screen, leaf blotch on wheat; conditions: Zymoseptoria tritici; Test 1, foliar spray on wheat; disease control rating at 400 ppm / 100 ppm; read-out: LEAF BLOT
[8] = test system: Erysiphe graminis tritici (powdery mildew); experiment: Test 1 greenhouse foliar spray screen, powdery mildew on wheat; conditions: Blumeria graminis, foliar, Test 1, foliar spray on wheat; disease control rating at 400 ppm / 100 ppm; read-out: POWD MDEW
[9] = test system: Puccinia recondita tritici (leaf rust); experiment: Test 1 greenhouse foliar spray screen, leaf rust on wheat; conditions: Puccinia recondita, foliar, Test 1, foliar spray on wheat; disease control rating at 400 ppm / 100 ppm
[10] = test system: melon aphids (Aphis gossypii Glover); experiment: Mite/insect screen, MA; conditions: Aphis gossypii, foliar, read-out: MA RESULTS %
Summary of the method: as §1

[11] = test system: Botrytis cinerea (gray mold); experiment: Test 1 greenhouse foliar spray screen, gray mold on grape berries; conditions: Botrytis cinerea, foliar; Test 1, spray on grape berries; disease control rating at 400 ppm / 100 ppm
[12] = percent mortality, rate 200 ppm, foliar spray on squash
[13] = percent mortality, CRW rate 12.00 ppm
[14] = percent mortality, rate 400 ppm, foliar spray on squash
[15] = percent mortality, CRW rate 24.00 ppm

c1ccc(CCNc2ccnc3c(NCCc4ccccc4)cccc23)cc1 [Example 189, N,N'-bis(2-phenylethyl)-4,8-quinolinediamine]
20 to 89%: pest or weed control at 400 ppm [1] | pest or weed control at 400 ppm [2] | pest or weed control at 400 ppm [9]
0%: mortality at 200 ppm [3, 12] | mortality at 12 ppm (corn rootworm; [13]) | mortality at 200 ppm [5, 12] | mortality at 200 ppm [10, 12]
0 to 19%: pest or weed control at 400 ppm [4] | pest or weed control at 400 ppm [6] | pest or weed control at 400 ppm [7] | pest or weed control at 400 ppm [8] | pest or weed control at 400 ppm [11]

Fc1cccc2c(NCCc3ccc(Cl)cc3Cl)cc(NCCc3ccc(Cl)cc3Cl)nc12 [Example 190, N,N'-bis[2-(2,4-dichlorophenyl)ethyl]-8-fluoro-2,4-quinolinediamine]
20 to 89%: pest or weed control at 400 ppm [1]
0%: mortality at 200 ppm [3, 12] | mortality at 12 ppm (corn rootworm) | mortality at 200 ppm [5, 12] | mortality at 200 ppm [10, 12]
0 to 19%: pest or weed control at 400 ppm [2] | pest or weed control at 400 ppm [4] | pest or weed control at 400 ppm [6] | pest or weed control at 400 ppm [7] | pest or weed control at 400 ppm [8] | pest or weed control at 400 ppm [11]
90 to 100%: pest or weed control at 400 ppm [9]

C1=C(CCNc2ccc3nccc(NCCC4=CCCCC4)c3c2)CCCC1 [Example 192, N,N'-bis[2-(1-cyclohexen-yl)ethyl]-4,6-quinolinediamine]
0%: mortality at 200 ppm [3, 12] | mortality at 400 ppm [3, 14] | mortality at 12 ppm (corn rootworm; [13]) | mortality at 24 ppm (corn rootworm; [15]) | mortality at 200 ppm [5, 12] | mortality at 400 ppm [5, 14] | mortality at 200 ppm [10, 12] | mortality at 400 ppm [10, 14]
20 to 89%: pest or weed control at 400 ppm [7]
90 to 100%: pest or weed control at 400 ppm [2] | pest or weed control at 400 ppm [9]
0 to 19%: pest or weed control at 400 ppm [1] | pest or weed control at 400 ppm [4] | pest or weed control at 400 ppm [6] | pest or weed control at 400 ppm [8] | pest or weed control at 400 ppm [11]

Fc1cccc2c(OCCc3cccc(Cl)c3)ccnc12 [Example 201, 4-[2-(3-chlorophenyl)ethoxy]-8-fluoroquinoline]
0 to 19%: pest or weed control at 400 ppm [11]
20 to 89%: pest or weed control at 400 ppm [1] | pest or weed control at 400 ppm [6]
90 to 100%: pest or weed control at 400 ppm [2] | pest or weed control at 400 ppm [4] | pest or weed control at 400 ppm [7] | pest or weed control at 400 ppm [8] | pest or weed control at 400 ppm [9]
particularly excellent activity: activity against downy mildew [2] | activity as miticides [3]
0%: mortality at 12 ppm (corn rootworm; [13]) | mortality at 24 ppm (corn rootworm; [15]) | mortality at 200 ppm [5, 12] | mortality at 400 ppm [5, 14]
100%: mortality at 200 ppm [10, 12] | mortality at 400 ppm [10, 14]
80%: mortality at 200 ppm [3, 12] | mortality at 400 ppm [3, 14]

Clc1ccc2c(OCCc3ccccc3)ccnc2c1 [Example 202, 7-chloro-4-(2-phenylethoxy)quinoline]
20 to 89%: pest or weed control at 400 ppm [1] | pest or weed control at 400 ppm [4] | pest or weed control at 400 ppm [7]
90 to 100%: pest or weed control at 400 ppm [2] | pest or weed control at 400 ppm [8] | pest or weed control at 400 ppm [9]
0 to 19%: pest or weed control at 400 ppm [6] | pest or weed control at 400 ppm [11]
0%: mortality at 200 ppm [3, 12] | mortality at 400 ppm [3, 14] | mortality at 12 ppm (corn rootworm; [13]) | mortality at 24 ppm (corn rootworm; [15]) | mortality at 200 ppm [5, 12] | mortality at 400 ppm [5, 14] | mortality at 200 ppm [10, 12] | mortality at 400 ppm [10, 14]

Fc1cccc2c(OCCc3cccc(C(F)(F)F)c3)ccnc12 [Example 203, 8-fluoro-4-[2-(3-(trifluoromethyl)phenyl)ethoxy]quinoline]
20 to 89%: pest or weed control at 400 ppm [4] | pest or weed control at 400 ppm [6] | pest or weed control at 400 ppm [8]
90%: mortality at 400 ppm [10]
10%: mortality at 200 ppm [5]
0%: mortality at 200 ppm [3] | mortality at 400 ppm [3] | mortality at 12 ppm (corn rootworm) | mortality at 24 ppm (corn rootworm) | mortality at 400 ppm [5]
particularly excellent activity: activity against rice blast ([1]; summary statement in the description) | activity against downy mildew [2] | activity as miticides [3]
90 to 100%: pest or weed control at 400 ppm [1] | pest or weed control at 400 ppm [2] | pest or weed control at 400 ppm [7] | pest or weed control at 400 ppm [9]
0 to 19%: pest or weed control at 400 ppm [11]
100%: mortality at 200 ppm [10]

— patent EP0326331B1, “Substituted quinolines and cinnolines” (Dow AgroSciences LLC, priority 1988, dated 1989)
